# Paper PMC9774600, “Oligopeptide Sortase Inhibitor Modulates Staphylococcus aureus Cell Adhesion and Biofilm Formation” (Antibiotics, 2022)
# “Also recorded” adds a separate entry of the source.
# Legend:
# [1] = format: physicochemical
# Text: The pentapeptide LPRDA was synthesized using the solid-phase peptide 9-fluorenylmethoxycarbonyl chemistry method. […] HRMS (ESI, m/z): [M + H]^+ calculated for C24H42N8O8, 571.3204; found, 571.3188.
# [2] = test system: S. aureus; details: cited from earlier work
# Text: This concentration is at least eight times higher than those used for inducing antiadhesive effects, which is consistent with the LPRDA MIC > 200 µmol/L reported in [18]. A lack of bactericidal activity is an essential property for antivirulence therapeutics. The following experiments have found differ ...
# [3] = test system: S. aureus ATCC 43300 (MRSA) adhesion to Vero cells; test: Adhesion of LPRDA-modified S. aureus to Vero cells; format: cell-based, Staphylococcus aureus; details: for AI (adhesion index) / PI (percentage of infected cells) / ML (microbial load, AI×PI): 18 h pre-incubation; for AI (adhesion index): control 7.6 ± 0.1; for PI (percentage of infected cells): control 100; for ML (microbial load, AI×PI): control 755.9 ± 10.6
# Experimental: (§1) The influence of LPRDA on staphylococcal adhesive properties was evaluated using preliminary incubation of the studied bacterial strains with LPRDA for 18 h and subsequent microscopic detection of adhesion cases of the modified staphylococci to African green monkey kidney epithelial cells (Vero). The following parameters were determined from the adhesion experiments: adhesion index (AI), defined as the average number of attached bacterial cells per eukaryotic cell; percentage of infected cells (PI), defined as the proportion of Vero cells with bacteria adhered to their surface; microbial load (ML), defined as a product AI×PI; and adhesion inhibition index (AII), defined as the ratio of experimental AI to control.
# (§2) Vero cells were seeded in 96-well plates at 25 × 10^3 cells/well and grown overnight. Bacterial cells (S. aureus ATCC 29213 or S. aureus ATCC 43300) were incubated with the oligopeptide LPRDA in the concentration range 12.5–100 µmol/L at 37 °C for 18 h with constant shaking at 100 rpm. Luria–Bertani (LB) medium and untreated bacteria served as a control. After incubation, the bacterial suspension was centrifuged at 10,000× g rpm for 10 min and washed twice with sterile PBS for 5 min at 10,000 rpm. The final bacterial concentrations were adjusted to the OD560 of 0.3 McFarland in sterile saline. Next, the monolayer of Vero cells in the 96-well plates was inoculated with 100 μL of the bacterial suspension with an equal volume of the stock DMEM culture medium and incubated for 1 h. The monolayer was washed three times with phosphate-buffered saline (PBS), followed by fixation with 4% formaldehyde for 60 min. Then, the wells of the plates were washed twice with PBS, dried, and stained with purified gentian violet solution (1%) for 15 min. The dye was removed, and images were captured in […] at 40× using an Evos FL microscope (Thermo Fisher Scientific, Waltham, MA, USA). Images were captured in 4–10 random fields of view at 40-fold magnification using an Evos FL microscope. Images were analyzed using ImageJ Fiji software v1.53c.
# [4] = test system: S. aureus ATCC 29213 (MSSA) adhesion to Vero cells; test: Adhesion of LPRDA-modified S. aureus to Vero cells; format: cell-based, Staphylococcus aureus; details: for AI (adhesion index): control 5.2 ± 0.3; for PI (percentage of infected cells): control 100; for ML (microbial load, AI×PI): control 516.7 ± 31.1
# Experimental: as §1, §2
# [5] = test system: S. aureus SrtA; details: read-out: IC50 inhibition of the recombinant enzyme; cited from earlier work
# [6] = test system: S. aureus-induced mastitis; details: mouse model; cited from earlier work
# Text: Only a few SrtA inhibitors have been evaluated in vivo, and so far, none have advanced to clinical trials, which would necessitate an actual efficacy evaluation and follow-up of the in-depth studies of these compounds [17]. […] Due to our interest in the development of novel antibacterials with antiadhesive mechanisms of action, we selected a reference compound with ...
# [7] = test system: community-associated MRSA strain USA300; details: 25 µmol/L LPRDA, compared with srtA mutants; cited from earlier work
# Experimental: Wang et al. studied the community-associated MRSA strain USA300 and its srtA mutants in a biofilm formation assay. […] We studied the influence of LPRDA at concentrations of 12.5 to 100 µmol/L on biofilm production by the MSSA and MRSA strains used in this adhesion experiment. We observed a concentration-dependent decrease in the amount of biofilm formed by the S. aureus ATCC 29213 (MSSA) strain when it was incubated with increasing concentrations of LPRDA (F ...
# [8] = test system: S. aureus ATCC 43300 (MRSA) biofilm; test: Inhibition of biofilm formation assay; format: cell-based, Staphylococcus aureus; details: 24 h
# Experimental: (§3) The assay was performed according to the protocol described by O’Toole, with minor modifications. To evaluate the effect of LPRDA on biofilm formation by the S. aureus ATCC 29213 and S. aureus ATCC 43300 strains, 150 µL of sterile LB broth with 4% glucose containing 12.5–100 µmol/L concentrations of LPRDA was added to four wells of 96-well plates. Then, 50 µL of staphylococcal culture (1 × 10^7 CFU/mL) was added and incubated at 37 °C for 24 h. LB culture broth that was not treated with LPRDA was used as the positive control. After 24 h, the plates were washed with PBS to remove planktonic and dead cells, stained with a 0.1% solution of gentian violet for 20 min, followed by extraction of the bound dye with 96% ethanol. The optical density (OD) of the obtained extracts was measured at 570 nm using a SPECTROstar Nano spectrophotometer.
# (§4) The bacterial strains were classified into categories according to the Stepanović criteria. Quantitative calculation of S. aureus CFU in the biofilm formed in the presence of LPRDA and in the control experiments was assessed by inoculation on Columbia agar according to the Koch procedure. Inhibition of biofilm formation was determined according to the Kumari method.
# [9] = test system: S. aureus ATCC 29213 (MSSA) biofilm; test: Inhibition of biofilm formation assay; format: cell-based, Staphylococcus aureus; details: 100 µmol/L LPRDA
# Experimental: as §3, §4
# [10] = highest studied LPRDA concentration (100 µmol/L), p = 0.01
# [11] = MSSA pre-incubated 18 h with 100 µmol/L LPRDA, then 1 h with Vero cells, mean ± SD
# [12] = MSSA, 12.5 µmol/L LPRDA, 18 h pre-incubation
# [13] = MSSA, 25 µmol/L LPRDA, 18 h pre-incubation, mean ± SD
# [14] = MSSA, 50 µmol/L LPRDA, 18 h pre-incubation, mean ± SD
# [15] = MSSA, 100 µmol/L LPRDA, p = 0.021
substance,measurement,setting,value
Leu-Pro-Arg-Asp-Ala [LPRDA],Solubility,[1],soluble in water
same,MIC,[2],> 200 µM
same,AI (adhesion index),[3]; 12.5 µmol/L LPRDA,7.9; 0.056
same,PI (percentage of infected cells),[3]; 12.5 µmol/L LPRDA,100; – %
same,"ML (microbial load, AI×PI)",[3]; 12.5 µmol/L LPRDA,790.2; 0.056
same,PI (percentage of infected cells),[3]; 25 µmol/L LPRDA,100; – %
same,AI (adhesion index),"[3]; 25 µmol/L LPRDA, mean ± SD",7.4 ± 0.1; 0.516
same,"ML (microbial load, AI×PI)","[3]; 25 µmol/L LPRDA, mean ± SD",744.2 ± 8.3; 0.516
same,PI (percentage of infected cells),[3]; 50 µmol/L LPRDA,100; – %
same,AI (adhesion index),"[3]; 50 µmol/L LPRDA, mean ± SD",7.3 ± 0.2; 0.332
same,"ML (microbial load, AI×PI)","[3]; 50 µmol/L LPRDA, mean ± SD",727.4 ± 18.2; 0.33
same,PI (percentage of infected cells),[3]; 100 µmol/L LPRDA,100; – %
same,"ML (microbial load, AI×PI)","[3]; 100 µmol/L LPRDA, mean ± SD",679.2 ± 13.6; 0.01
same,AI (adhesion index),"[3]; 100 µmol/L LPRDA, then 1 h with Vero cells, mean ± SD",6.8 ± 0.1; 0.01
same,Antiadhesive effect,[3]; 12.5–100 µmol/L LPRDA,did not induce an appreciable antiadhesive effect; also recorded: did not induce a significant antiadhesive effect
same,AI lower than the control,[3]; [10],approximately 10%
same,ML lower than the control,[3]; [10],approximately 10%
same,AI (adhesion index),[4]; [11],3.4 ± 0.4; 0.021
same,PI (percentage of infected cells),[4]; [11],84.0 ± 2.8; 0.021%
same,"ML (microbial load, AI×PI)",[4]; [11],286.9 ± 38.8; 0.009
same,AI (adhesion index),[4]; [12],5.4; 0.53
same,PI (percentage of infected cells),[4]; [12],100; 0.53%
same,"ML (microbial load, AI×PI)",[4]; [12],542.9; 0.53
same,AI (adhesion index),[4]; [13],4.8 ± 0.2; 0.43
same,PI (percentage of infected cells),[4]; [13],99.0 ± 0.8; 0.373%
same,"ML (microbial load, AI×PI)",[4]; [13],471.1 ± 26.5; 0.414
same,"AII (adhesion inhibition index, ratio of experimental AI to control)","[4]; MSSA, 50 µmol/L LPRDA",55.8%
same,AI (adhesion index),[4]; [14],2.9 ± 0.2; 0.01
same,PI (percentage of infected cells),[4]; [14],85.0 ± 4.6; 0.054%
same,"ML (microbial load, AI×PI)",[4]; [14],240.8 ± 9.2; 0.002
same,"AII (adhesion inhibition index, ratio of experimental AI to control)","[4]; MSSA, 100 µmol/L LPRDA",65.4%
same,AI reduction,"[4]; MSSA, 100 µmol/L LPRDA, 1 h incubation with Vero cells",1.5 times
same,ML decrease relative to the control,"[4]; MSSA, 100 µmol/L LPRDA, p = 0.009",45%
same,AI decrease relative to the control,[4]; [15],34.6%
same,PI decrease relative to the control,[4]; [15],16%
same,Antiadhesive effect,"[4]; MSSA, LPRDA concentrations below 50 µmol/L",did not have a notable antiadhesive effect
same,IC50,[5],10.6 µM
same,Protection against S. aureus-induced mastitis,[6],demonstrated protection against S. aureus-induced mastitis
same,Biofilm formation,[7],attenuated biofilm formation to the level of knocked out bacteria
same,Decrease in biofilm formation (biomass),"[8]; 100 µmol/L LPRDA (maximum decrease), gentian violet OD 570 nm",12%
same,Number of sessile bacteria versus control,[8]; 12.5–100 µmol/L LPRDA,No significant difference
same,Number of sessile bacterial cells in biofilm,"[9]; 24 h, control 5 × 10^6 CFU/mL, inoculation on Columbia agar",5 × 10^5 CFU/mL
same,Reduction in biofilm,"[9]; 24 h, gentian violet OD 570 nm",44%
same,Decrease in sessile cell bacteria number,[9]; 24 h incubation,10 fold
